What all share (assay type): cell-based
One test has as its system NCI-H1299 cells. The test can be described thus: CCK-8 assay for cell proliferation and cytotoxicity, NCI-H1299. As to conditions: Homo sapiens, CCK-8, 48 h. As to the method:
(§1) Three types of lung cells were seeded into 96-well plate at a density of 5 × 10^3 cells per well at logarithmic growth phase and cultured in 37 °C. […] After that, cell viability was determined according to the instruction of the CCK-8 assay. Next, 10 μL of CCK-8 solution was added to each well of the plate and incubate the plate for 1–4 h in the incubator. The absorbance was measured at 450 nm using a microplate reader (Bio-Tek). The percentage of viable cells was measured using the following formula where three independent experiments were performed: [(A450 sample − A450blank)/(A450 control − A450blank)] × 100%.

The next test has as its system A549 cells. Kind of test: CCK-8 assay for cell proliferation and cytotoxicity, A549. As to conditions: Homo sapiens, CCK-8, 48 h. As for the experimental part: A549 cells were cultured in a humidified incubator at 37 °C with 5% CO2 in Ham’s F-12 K (PM150910, Procell) supplemented with 10% FBS and 1% Penicillin Streptomycin.
as §1
(In general: Tetrazolium assays rely on reduction of a dye to a coloured formazan, in cell work by metabolically active cells.)

The next test deals with NCI-H1437 cells. The test can be described thus: CCK-8 assay for cell proliferation and cytotoxicity, NCI-H1437. Conditions: Homo sapiens, CCK-8, 48 h, read-out: IC50 1437. As for the experimental part: as §1

Molecules are shown by their SMILES.

With `COc1cc2ncnc(Nc3cccc(-c4cn(Cc5ccc(Br)cc5F)nn4)c3)c2cc1OCCCN1CCOCC1` [Compound 7b], the concentration for half-maximal inhibition (IC50) in the test with NCI-H1299 cells amounted to 4.6 ± 0.16 µM; in the test with A549 cells it was 5.28 ± 0.2 µM; in the test with NCI-H1437 cells, 3.65 ± 0.04 µM.
Taken in the same sequence, the figures for `COc1cc2ncnc(Nc3cccc(-c4cn(Cc5ccc(Cl)c(F)c5)nn4)c3)c2cc1OCCCN1CCOCC1` [Compound 7c] were 6.24 ± 0.32 µM, 5.68 ± 0.14 µM and 3.08 ± 0.47 µM.
In the same order, the values of `COc1cc2ncnc(Nc3cccc(-c4cn(Cc5c(F)cccc5Cl)nn4)c3)c2cc1OCCCN1CCOCC1` [Compound 7d] are 6.04 ± 0.41 µM, 8.5 ± 0.41 µM and 4.83 ± 0.16 µM.
In the same order, the values of `COc1cc2ncnc(Nc3cccc(-c4cn(Cc5ccccc5[N+](=O)[O-])nn4)c3)c2cc1OCCCN1CCOCC1` [Compound 7e] are 5.81 ± 0.12 µM, 4.38 ± 0.07 µM and 2.22 ± 0.18 µM.
With `COc1cc2ncnc(Nc3cccc(-c4cn(Cc5ccc([N+](=O)[O-])cc5)nn4)c3)c2cc1OCCCN1CCOCC1` [Compound 7f], the half-maximal inhibitory concentration (IC50) stood at 5.65 ± 0.16 µM with NCI-H1299 cells, 16.4 ± 1.07 µM with A549 cells and 3.95 ± 0.45 µM in the test on NCI-H1437 cells.
In the same order, the values of `COc1cc2ncnc(Nc3cccc(-c4cn(Cc5ccccc5F)nn4)c3)c2cc1OCCCN1CCOCC1` [Compound 7g, N-(3-(1-(2-fluorobenzyl)-1H-1,2,3-triazol-4-yl)phenyl)-7-methoxy-6-(3-morpholinopropoxy)quinazolin-4-amine] are 5.97 ± 0.36 µM, 6.23 ± 0.12 µM and 1.66 ± 0.18 µM.
In the same order, the values of `COc1cc2ncnc(Nc3cccc(-c4cn(Cc5ccc(C(F)(F)F)cc5)nn4)c3)c2cc1OCCCN1CCOCC1` [Compound 7h] are 4.89 ± 0.16 µM, 7.13 ± 1.21 µM and 5.21 ± 0.3 µM.
Regarding `COc1cc2ncnc(Nc3cccc(-c4cn(Cc5ccc(I)cc5)nn4)c3)c2cc1OCCCN1CCOCC1` [Compound 7i], the IC50 in the test on NCI-H1299 cells was 5.6 ± 0.09 µM; with A549 cells, 5.76 ± 0.62 µM; with NCI-H1437 cells it was 4.69 ± 0.23 µM.
In the same order, the values of `COc1cc2ncnc(Nc3cccc(-c4cn(Cc5ccc(Cl)cc5)nn4)c3)c2cc1OCCCN1CCOCC1` [Compound 7k] are 6.9 ± 0.23 µM, 4.91 ± 0.52 µM and 2.9 ± 0.23 µM.
In the same order, the values of `COc1cc2ncnc(Nc3cccc(-c4cn(Cc5ccccc5C)nn4)c3)c2cc1OCCCN1CCOCC1` [Compound 7l] are 4.92 ± 0.49 µM, 6.59 ± 0.2 µM and 0.84 ± 0.1 µM.
Taken in the same sequence, the figures for `COc1cc2ncnc(Nc3cccc(-c4cn(Cc5cc(C)cc(C)c5)nn4)c3)c2cc1OCCCN1CCOCC1` [Compound 7m] were 4.48 ± 0.41 µM, 6.54 ± 0.21 µM and 3.72 ± 0.17 µM.
As to `COc1cc2ncnc(Nc3cccc(-c4cn(Cc5cc(F)ccc5C#N)nn4)c3)c2cc1OCCCN1CCOCC1` [Compound 7n], the figures for the half-inhibitory concentration (IC50) in the test on NCI-H1299 cells, in the test on A549 cells and with NCI-H1437 cells were 6.02 ± 0.24 µM, 3.78 ± 0.03 µM and 4.67 ± 0.28 µM, respectively.
For `COc1cc(Cn2cc(-c3cccc(Nc4ncnc5cc(OC)c(OCCCN6CCOCC6)cc45)c3)nn2)cc(OC)c1` [Compound 7o], the 50% inhibitory concentration (IC50) in the test with NCI-H1299 cells was determined as 6.78 ± 0.41 µM; in the test on A549 cells, 12 ± 0.15 µM; in the test with NCI-H1437 cells, 5.21 ± 0.13 µM.
Taken in the same sequence, the figures for `COc1cc2ncnc(Nc3cccc(-c4cn(Cc5cccc(I)c5)nn4)c3)c2cc1OCCCN1CCOCC1` [Compound 7p] were 5.04 ± 0.33 µM, 8.5 ± 0.34 µM and 4.93 ± 0.14 µM.
In the same order, the values of `COc1cc2ncnc(Nc3cccc(-c4cn(-c5ccccc5F)nn4)c3)c2cc1OCCCN1CCOCC1` [Compound 7q] are 7.68 ± 0.11 µM, 9.03 ± 0.15 µM and 7.21 ± 0.1 µM.
For `COc1cccc(-n2cc(-c3cccc(Nc4ncnc5cc(OC)c(OCCCN6CCOCC6)cc45)c3)nn2)c1` [Compound 7r], the values for the half-maximal inhibitory concentration (IC50) in the test with NCI-H1299 cells, in the test with A549 cells and with NCI-H1437 cells were 9.35 ± 0.31 µM, 12.9 ± 0.25 µM and 6.21 ± 0.23 µM, respectively.
Turning to `COc1cc2ncnc(Nc3cccc(-c4cn(-c5cccc([N+](=O)[O-])c5)nn4)c3)c2cc1OCCCN1CCOCC1` [Compound 7s], the results for the IC50 in the test with NCI-H1299 cells, in the test on A549 cells and in the test with NCI-H1437 cells were 9.68 ± 0.21 µM, 11 ± 0.25 µM and 8.21 ± 0.13 µM, respectively.
`COc1cc2ncnc(Nc3cccc(-c4cn(-c5ccc([N+](=O)[O-])cc5OC)nn4)c3)c2cc1OCCCN1CCOCC1` [Compound 7t]: the results for the 50% inhibitory concentration (IC50) in the test with NCI-H1299 cells, with A549 cells and with NCI-H1437 cells were 13 ± 0.23 µM, 13.5 ± 0.33 µM and 14.93 ± 0.14 µM, respectively.

As usually defined, the IC50 is the concentration at which inhibition is half-maximal.

Values taken from paper PMC11035632, “Discovery of gefitinib-1,2,3-triazole derivatives against lung cancer via inducing apoptosis and inhibiting the colony formation” (Scientific Reports, 2024).
